# Data: patent publication US12404283B2, “c-MYC mRNA translation modulators and uses thereof in the treatment of cancer” (Anima Biotech Inc., priority 2022, dated 2025)
# Counter-ions that a name gives are not always drawn. Numbered stars: 1 amine (or outer) side, 2 acyl side, 3 side chain; on linkers, the order of the positions; unused ones are H or OH. Bridge positions count the residues as written; N and C are the ends. Square brackets hold non-standard residues; d marks the D form. Peptide text beside a SMILES is read from it. I, II: the chains in the order shown. Actinocin(9to1) = Cc1c2oc3c(C)ccc(C(=O)[*:1])c3nc-2c(C(=O)[*:2])c(N)c1=O; NMeV = CN[C@H](C(=O)O)C(C)C; Sar = CNCC(=O)O
# Assays:
# [1] = system: A549 xenografts; experiment: A549 xenograft tumor growth in nude mice; assay type: in vivo; conditions: NMRI female nude mice, 3 mg/kg twice a week for 49 days, p<0.05
# Experimental: Relative tumor volumes of A549 xenografts in NMRI female nude mice after treatment with compound 3 mg/kg twice a week for 49 days. Error bars represent median±SEM, n=10 mice at each time point and analyzed by one-tailed T-TEST in Prism for *p<0.05
# [2] = system: c-Myc; experiment: c-Myc immunofluorescence assay; assay type: cell-based, human; conditions: A549 cells; for Myc Efficacy (−LogEC50): 24 hours treatment, anti-c-Myc immunofluorescence
# How it was run: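 High-content imaging (20×) of PFA-fixed A549 cells immunostained for c-Myc with DAPI nuclei, after 24 h compound treatment at increasing concentrations. Per-cell c-Myc signal in identified cell regions was plotted against dose and fitted by logistic regression to give EC50.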
# [3] = system: A549 xenografts; experiment: A549 xenograft model in nude mice; assay type: in vivo, NMRI nude female mice; conditions: 3 mg/kg i.p. twice a week for 49 days, FIG. 5
# Experimental: NMRI nude female mice of 6-8 weeks of age were acclimated after shipping for >4 days. A549 cells, 5×10^6 in 100 ul Matrigel:PBS (50:50), were subcutaneously injected into flanks of mice. When the tumor size reached 80 to 200 mm^3, mice were grouped with similar average tumor size in each group, 10 animals per group. Compounds were dissolved in 10% DMSO, 10% Solutol, 80% water. Compounds were given i.p. for 49 days at 3 mg/kg twice a week. Caliper measurement of tumor size was done twice a week.
# Error bars represent median±SEM, n=10 mice at each time point and analyzed by one-tailed T-TEST in Prism for *p<0.05.
# [4] = system: c-Myc protein; experiment: c-Myc protein level in A549 cells; assay type: cell-based, human
# Text: (§1) A549 cells were exposed to vehicle, general transcription inhibitor actinomycin D or anti-c-Myc compound.
# (§2) In gray, cell nuclei stained with DAPI; in red, c-Myc protein; in purple, c-Myc mRNA; in yellow, c-Myc transcription sites.
# [5] = system: c-Myc mRNA; experiment: c-Myc mRNA level and transcription sites in A549 cells; assay type: cell-based, human
# Text: as §1, §2
# [6] = system: c-Myc mRNA; experiment: Fluorescent in situ hybridization (FISH) assay for c-Myc mRNA; assay type: cell-based, human; conditions: A549 cells, 4 hours, FIG. 3 lower panel
# Experimental: A549 cells were incubated with compounds for 24 hours (FIG. 3, upper panel) and c-Myc protein detected by immunofluorescence. In parallel, A549 cells were incubated with compounds for 4 hours and c-Myc mRNA was visualized by micrscopy using c-Myc mRNA specific fluorescent-tagged probes (FIG. 3, lower panel).
# A549 cells were grown in 384-wells plates (Perkin Elmer, Cat. 6057300) for 48 hours, treated with compounds for 4 hours and then fixed for 20 min in 4% paraformaldehyde. Next day, permeabilization was done for 90 min at 4° C., using 70% ethanol. Then, the cells were incubated for 10 min with 10% formamide in 10% saline-sodium citrate. Fluorescently labeled custome DNA probes that target c-Myc (Cy3, BioSearch Technologies, Cat. SMF-1063-5) and GAPDH (Cy5, BioSearch Technologies, Cat. SMF-2019-1) mRNAs were hybridized overnight at 37° C. in a dark chamber in 10% formamide. The next day, cells were washed twice with 10% formamide for 30 min. […]
# Following RNA FISH experiments, images of cells were taken with Operetta (Perkin Elmer, USA), a wide-field fluorescence microscope at ×63 magnification. […] In Columbus, cells were identified by their nucleus, using the “Find Nuceli” module, cytoplasm was detected based on the FISH-channel, and single mRNAs in the cytoplasm and transcription sites in the nucleus were detected using “Find Spots” module. […]
# [7] = system: A549 cells; experiment: Metabolic labeling (L-Azidohomoalanine) of global protein synthesis in A549 cells; assay type: cell-based, human
# Text: FIG. 2 depicts selective regulation of c-Myc translation. […] In gray, cell nuclei stained with DAPI; in yellow, L-Azidohomoalanine (AHA) metabolic labeling.
# [8] = system: global translation; experiment: Metabolic labeling assay (global translation, modified methionine incorporation); assay type: cell-based, human; conditions: A549 cells, 4 hour pulse, FIG. 2
# Experimental: A549 cells were incubated with active compounds and metabolically labelled with fluorescent methionine for a 4 hour pulse (click-chemistry modified methionine). Cells were fixed and newly synthesized proteins detected by using click-chemistry with a fluorescent detector (FIG. 2).
# A549 cells were seeded at 3,200 cells per well in complete culture medium. Plates were incubated at 37° C., 5% CO2 overnight. After 48 hours of incubation, the growth medium was aspirated, and cells were washed three times with HBSS. Metabolic labeling medium DMEM (-Cys-Met), containing 10% dialyzed FBS, 10% pencillin-streptomycin and 1% L-glutamine was added to the cells for 30 min. Then medium was replaced by metabolic labeling medium containing 25 μM L-Azidohomoalanine (AHA, ThermoFisher) and tested compounds at a final concentration of 30 μM, and cells were incubated for 4 hours at 37° C., 5% CO2. Cells were washed by HBSS at 37° C. for 15 min before fixing with 4% paraformaldehyde. Cells were washed twice with 3% BSA in PBS before permeabilization with 0.5% Triton X-100 in PBS for 20 min. The AHA staining with Alexa Fluor™ 555 alkyne was performed according to the manufacturer protocol. Images were captured with Operetta microscope (Perkin Elmer) using ×20 high NA objective lens.
structure (smiles),measurement,setting,value
"NC1(c2ccc(-c3cn4c(n3)sc3cc(C(=O)NCCCN5CCCCC5)ccc34)cc2)CC1 [compound 332, 2-(4-(1-aminocyclopropyl)phenyl)-N-(3-(piperidin-1-yl)propyl)benzo[d]imidazo [2,1-b]thiazole-7-carboxamide]",c-Myc-dependent tumor growth (relative tumor volumes),[1],inhibited c-Myc-dependent tumor growth in-vivo
same,Myc Efficacy (−LogEC50),[2],+++ (+++ ≥6)
same,c-Myc-dependent tumor growth (relative tumor volume),[3],inhibited c-Myc-dependent tumor growth in-vivo
"Cc1c2oc3c(C)ccc(C(=O)N[C@@H]4C(=O)N[C@H](C(C)C)C(=O)N5CCC[C@H]5C(=O)N(C)CC(=O)N(C)[C@@H](C(C)C)C(=O)O[C@@H]4C)c3nc-2c(C(=O)N[C@@H]2C(=O)N[C@H](C(C)C)C(=O)N3CCC[C@H]3C(=O)N(C)CC(=O)N(C)[C@@H](C(C)C)C(=O)O[C@@H]2C)c(N)c1=O [actinomycin D] (I: T[dV]P[Sar][NMeV] / II: T[dV]P[Sar][NMeV]; ester I:1-I:C, II:1-II:C; linker I:N-II:N via Actinocin(9to1))",c-Myc protein level,[4],significant decrease
same,c-Myc mRNA level,[5],complete reduction
same,c-Myc transcription sites,[5],complete reduction
same,c-Myc protein detected by immunofluorescence,"[2]; 24 hours, FIG. 3 upper panel",reduced c-Myc protein
same,c-Myc mRNA in the cytoplasm,[6],mRNA accumulation in the cytoplasm
same,c-Myc transcription site (spots inside the nucleus),[6],inhibited transcription site
C[C@@H]1C[C@@H]([C@H](O)CC2CC(=O)NC(=O)C2)C(=O)[C@@H](C)C1 [cycloheximide],global protein synthesis (AHA metabolic labeling),[7],total inhibition
same,incorporation of modified methionine (global translation),[8],completely reduced incorporation of modified methionine
"CCN(CC)CCCNC(=O)c1ccc2c(c1)sc1nc(-c3ccc(C4COC4)cc3)cn12 [compound 173, N-(3-(diethylamino)propyl)-2-(4-(oxetan-3-yl)phenyl)benzo[d]imidazo [2,1-b]thiazole-7-carboxamide]",Myc Efficacy (−LogEC50),[2],++ (++ ≥5 and <6)
"CNC(=O)c1ccc(-c2cn3c(n2)sc2cc(C(=O)NC4CC(C)C4)ccc23)cc1 (stereo not shown) [compound 280, 2-(4-(methylcarbamoyl)phenyl)-N-(3-methylcyclobutyl)benzo[d] imidazo[2,1-b]thiazole-7-carboxamide]",Myc Efficacy (−LogEC50),[2],++ (++ ≥5 and <6)
"Cc1cccc(-c2cn3c(n2)sc2cc(C(=O)NCCCC4CCOCC4)ccc23)c1 [compound 139, N-(3-(tetrahydro-2H-pyran-4-yl)propyl)-2-(m-tolyl)benzo[d]imidazo[2,1-b]thiazole-7-carboxamide]",Myc Efficacy (−LogEC50),[2],+ (+ >3 and <5)
"CCN(CC)CCCNC(=O)c1ccc2c(c1)sc1nc(-c3cccc(C4COC4)c3)cn12 [compound 308, N-(3-(diethylamino)propyl)-2-(3-(oxetan-3-yl)phenyl)benzo[d]imidazo [2,1-b]thiazole-7-carboxamide]",Myc Efficacy (−LogEC50),[2],+ (+ >3 and <5)
"Cc1ccc(-c2cn3c(n2)sc2cc(C(=O)NC[C@H]4CCNC4)ccc23)cc1 [compound 114, (S)-N-(pyrrolidin-3-ylmethyl)-2-(p-tolyl)benzo[d]imidazo[2,1-b]thiazole-7-carboxamide formate]",Myc Efficacy (−LogEC50),[2],++ (++ ≥5 and <6)
"Cc1cccc(-c2cn3c(n2)sc2cc(C(=O)NCCCNCC(F)(F)F)ccc23)c1 [compound 178, 2-(m-tolyl)-N-(3-((2,2,2-trifluoroethyl)amino)propyl) benzo[d]imidazo[2,1-b]thiazole-7-carboxamide]",Myc Efficacy (−LogEC50),[2],+ (+ >3 and <5)
"O=C(NCCCN1CCC(F)CC1)c1ccc2c(c1)sc1nc(-c3cc(F)c(C4CCCN4)cc3F)cn12 (stereo not shown) [compound 477, 2-(2,5-difluoro-4-(pyrrolidin-2-yl)phenyl)-N-(3-(4-fluoropiperidin-1-yl)propyl)benzo[d]imidazo[2,1-b]thiazole-7-carboxamide]",Myc Efficacy (−LogEC50),[2],+++ (+++ ≥6)
"CNCCCCNC(=O)c1ccc2c(c1)sc1nc(-c3ccc(C(=O)NC)cc3)cn12 [compound 229, N-(4-(methylamino)butyl)-2-(4-(methylcarbamoyl)phenyl) benzo[d]imidazo[2,1-b]thiazole-7-carboxamide]",Myc Efficacy (−LogEC50),[2],+ (+ >3 and <5)
